Consider twelve molecules from patent publication US9340577B2, “HLA binding motifs and peptides and their uses” (priority 1992, dated 2016).

No end group written: not given here. Some results are limits rather than exact numbers.

Common to all, as to assay: biochemical
The target in one assay is DR1 (DRB1*0101) (Homo sapiens, UniProt P01903+P01911, A100R/D57E/F55L/F60I/F76Y/I96L/L162R/M171V/P40L/Q125E/R42F/V115G/Y59C). The class given is binding.
Another assay addresses DR4w4 (DRB1*0401) (Homo sapiens, UniProt P01903+P01911, A100K/A169T/F76Y/I96L/K127E/L162R/M171V/N62H/P40V/Q125Y/R42H/S133A/S149N/S66Y/V115G/V209L/W38E). The class given is binding.
A further assay deals with DR7 (DRB1*0701) (Homo sapiens, UniProt P01903+P01911, A100R/A102G/A103Q/D57E/D86V/E43K/F76Y/K127E/L162R/M171V/P40G/Q125H/Q99D/R33Q/R42Y/R54Q/S133A/S66F/T210M/V115G/Y107V/Y59L/Y89S). The format is binding.
The next assay concerns the target DRB1*0301 (Homo sapiens, UniProt P01903+P01911, A100K/A102G/A103R/A169T/F55Y/I96L/K41T/L162R/M171V/P40S/Q125H/Q178H/Q39Y/R42S/S66N/T106N/T262R/W38E/Y61H). The class given is binding.
In another assay the target is DRB1*0405 (Homo sapiens, UniProt P01903+P01911, A100R/A169T/D86S/F76Y/I96L/K127E/L162R/M171V/N62H/P40V/Q125Y/R42H/S133A/S149N/S66Y/V115G/V209L/W38E). The format is binding.
Another assay deals with DRB1*0802 (Homo sapiens, UniProt P01903+P01911, A100R/A103L/A169T/F76Y/H45Y/I96F/K41T/L162R/M171V/P40S/Q125H/Q178H/Q39Y/Q99D/R218S/R42G/S66Y/V115G/W38E). The format is binding.
In a further assay the target is DRB1*0901 (Homo sapiens, UniProt P01903+P01911, A100R/A103E/D57H/D86V/F55Y/F60I/F76Y/I96F/K127E/L162R/M171V/P40D/Q125H/Q99R/R33Q/R42F/S133A/S66N/T210M/V115G/W38K/Y107V/Y59G/Y89S). The format is binding.
In a further assay the target is DRB1*1201 (Homo sapiens, UniProt P01903+P01911, A100R/A169T/D57E/D86V/F55L/H45Y/K41T/L162R/M171V/P40S/Q125H/Q178H/Q39Y/Q99D/R42G/S66L/T262R/V114A/V67L/W38E/Y59H/Y61H/Y89S). The format is binding.
A further assay concerns the target DRB1*1302 (Homo sapiens, UniProt P01903+P01911, A100E/A169T/K41T/L162R/M171V/P40S/Q125H/Q178H/Q39Y/Q99D/R42S/S66N/T262R/V115G/W38E/Y61H). The class given is binding.
The target of a further assay is DRB4*0101 (Homo sapiens, UniProt P01903+P13762, G164S). The format is binding.
In the next assay the target is DRB1*1101 (Homo sapiens, UniProt P01903+P01911, A100R/A169T/A87E/I96F/K41T/L162R/M171V/P40S/Q125H/Q178H/Q39Y/Q99D/R42S/S66Y/T262R/V115G/W38E). The following applies: Binding affinity DRB1 *1101.
Chain of DRB1*1101 (P01903 26-254 limits assumed, other chains not shown): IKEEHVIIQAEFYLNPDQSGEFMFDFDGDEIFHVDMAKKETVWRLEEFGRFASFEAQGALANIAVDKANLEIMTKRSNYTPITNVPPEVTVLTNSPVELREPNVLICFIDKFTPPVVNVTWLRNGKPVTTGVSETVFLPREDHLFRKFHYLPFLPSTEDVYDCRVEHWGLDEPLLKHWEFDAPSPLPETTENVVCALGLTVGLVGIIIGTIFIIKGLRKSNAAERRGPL
A further assay has as its target DRB5*0101 (Homo sapiens, UniProt P01903+Q30154). The following applies: Binding affinity DRB5 *0101.
The next assay has as its target DRB1*1501 (Homo sapiens, UniProt P01903+P01911). The format is binding.

Chain of DRB1*0301 (P01903 26-254 limits assumed, other chains not shown): as above
Chain of DRB1*1302 (P01903 26-254 limits assumed, other chains not shown): as above

As for `CC[C@H](C)[C@H](NC(=O)[C@H](Cc1c[nH]c2ccccc12)NC(=O)[C@H](CCC(=O)O)NC(=O)[C@@H]1CCCN1)C(=O)N[C@@H](CCC(=O)O)C(=O)N[C@@H](CCCNC(=N)N)C(=O)N[C@@H](CCC(N)=O)C(=O)N[C@H](C(=O)N[C@H](C(=O)N[C@@H](CC(C)C)C(=O)N[C@@H](CCC(N)=O)C(=O)N[C@@H](Cc1c[nH]cn1)C(=O)N[C@@H](CO)C(=O)N[C@@H](Cc1ccccc1)C(=O)N[C@@H](CC(N)=O)C(=O)O)C(C)C)[C@@H](C)O` [Peptide 89.0049], the IC50 was 5240 nM against DR1 (DRB1*0101); 18 nM at DR4w4 (DRB1*0401); 2870 nM on DR7 (DRB1*0701); 210 nM against DRB1*0301; 440 nM at DRB1*0405; 707 nM against DRB1*0802. In addition, the IC50 at DRB1*0901 was 4520 nM; on DRB1*1201, 7980 nM; on DRB1*1302, 938 nM; at DRB4*0101, 2 nM; at DRB1*1101, 401 nM; on DRB5*0101 it was > 20000 nM.

Turning to `CC[C@H](C)[C@H](NC(=O)[C@H](Cc1c[nH]cn1)NC(=O)[C@H](C)NC(=O)[C@H](Cc1ccc(O)cc1)NC(=O)[C@H](CC(C)C)NC(=O)[C@@H](NC(=O)[C@H](C)NC(=O)[C@@H]1CCCN1C(=O)[C@H](CCCCN)NC(=O)[C@@H](NC(=O)[C@H](CC(C)C)NC(=O)[C@@H](NC(=O)[C@H](CCCCN)NC(=O)[C@@H](N)Cc1ccccc1)[C@@H](C)O)[C@@H](C)CC)[C@@H](C)O)C(=O)N[C@@H](CCC(N)=O)C(=O)O` [Peptide 89.0082], the IC50 is 23 nM against DR1 (DRB1*0101); 123 nM against DR4w4 (DRB1*0401); 825 nM against DRB1*0301; 14 nM on DRB1*0405; 570 nM against DRB1*0901; 84 nM against DRB1*1201. The IC50 against DRB1*1302 amounted to 45 nM; against DRB4*0101 it was 20 nM; on DRB1*1101 it was 5.5 nM; on DRB5*0101, 2430 nM.

On to `CC(C)C[C@H](NC(=O)[C@H](CCC(N)=O)NC(=O)[C@H](CCCCN)NC(=O)[C@@H](NC(=O)[C@H](CC(C)C)NC(=O)[C@H](CCC(N)=O)NC(=O)[C@@H](NC(=O)[C@H](C)NC(=O)[C@H](CO)NC(=O)[C@@H](NC(=O)[C@@H](NC(=O)[C@H](CC(=O)O)NC(=O)[C@@H](N)CC(=O)O)[C@@H](C)O)C(C)C)[C@@H](C)O)C(C)C)C(=O)N[C@@H](CCC(N)=O)C(=O)N[C@@H](Cc1c[nH]cn1)C(=O)O` [Peptide 89.0162], for which the IC50 came out at 100 nM against DR4w4 (DRB1*0401); 241 nM at DRB1*0301; 674 nM on DRB1*0405; 1970 nM against DRB1*0901; 275 nM against DRB1*1201; 73 nM at DRB1*1302. The IC50 against DRB1*1501 was found to be 601 nM; on DRB4*0101 it was 128 nM; on DRB1*1101, 943 nM; on DRB5*0101, 578 nM.

As to DNDIVDDSEIAYKYA [Peptide 90.0037], the IC50 is > 20000 nM against DR1 (DRB1*0101); 4620 nM against DR4w4 (DRB1*0401); > 20000 nM at DR7 (DRB1*0701); 28 nM on DRB1*0301; > 20000 nM against DRB1*0405; > 20000 nM on DRB1*0802. Besides, the IC50 was > 20000 nM at DRB1*0901; 5300 nM on DRB1*1201; > 20000 nM at DRB1*1302; > 20000 nM against DRB4*0101; > 20000 nM at DRB1*1101; > 20000 nM at DRB5*0101.

For the molecule DNELTDDSDIAYYYA [Peptide 90.0085], the IC50 against DR1 (DRB1*0101) is > 20000 nM; at DR4w4 (DRB1*0401) it was > 20000 nM; against DR7 (DRB1*0701) it was > 20000 nM; against DRB1*0301, 98 nM; against DRB1*0405, > 20000 nM; at DRB1*0802, > 20000 nM. Further, the concentration for half-maximal inhibition (IC50) against DRB1*0901, at DRB1*1201, against DRB1*1302, against DRB4*0101, at DRB1*1101 and on DRB5*0101 was > 20000 nM in each case.

Take EDEIDTDLDGFIDDS [Peptide 90.0126]: the IC50 against DR1 (DRB1*0101) was 320 nM; on DR4w4 (DRB1*0401), > 20000 nM; on DRB1*0301, 128 nM; at DRB1*0405 it was 1020 nM; against DRB1*1201 it was 138 nM; on DRB1*1302, 67 nM. Also, the IC50 was 270 nM against DRB1*1501, 823 nM at DRB4*0101 and > 20000 nM on DRB1*1101.

Turning to EIYIIEEDTCTMVTG [Peptide 90.0203], the IC50 is 1360 nM against DR1 (DRB1*0101); 258 nM against DR4w4 (DRB1*0401); 273 nM against DRB1*0301; 3090 nM against DRB1*0405; > 20000 nM against DRB1*0802; > 20000 nM on DRB1*0901. The IC50 against DRB1*1201 was > 20000 nM; at DRB1*1302, 577 nM; at DRB1*1501, 6500 nM; on DRB4*0101, 1740 nM; at DRB5*0101, > 20000 nM.

With FKYFKEDAAKYSKTQ [Peptide 90.0206], the IC50 against DR1 (DRB1*0101) came to 63 nM; against DR4w4 (DRB1*0401), 19 nM; on DRB1*0301, 451 nM; against DRB1*0405, 6860 nM; at DRB1*0802 it was 835 nM; on DRB1*0901 it was 1700 nM. Further, the IC50 against DRB1*1201 was 399 nM; against DRB1*1302, 1700 nM; against DRB1*1501 it was 865 nM; against DRB4*0101, > 20000 nM; on DRB1*1101 it was 303 nM.

For the molecule IIHLKGDANILKCLR [Peptide 90.0197], the IC50 at DR1 (DRB1*0101) is 69 nM; at DR4w4 (DRB1*0401), 64 nM; against DR7 (DRB1*0701), 3050 nM; against DRB1*0301, 26 nM; against DRB1*0405 it was 6500 nM; against DRB1*0802, 2990 nM. In addition, the IC50 on DRB1*0901 turned out to be 14100 nM; against DRB1*1201 it was 5030 nM; at DRB1*1302, 66 nM; against DRB4*0101, 713 nM; at DRB5*0101 it was 2460 nM.

As to KNRLTVAKLMSNLLS [Peptide 89.0064], the IC50 amounted to 5.6 nM on DR1 (DRB1*0101); 21 nM on DR4w4 (DRB1*0401); 2.8 nM against DR7 (DRB1*0701); 9720 nM against DRB1*0301; 12 nM at DRB1*0405; 580 nM on DRB1*0802. The IC50 is 2680 nM against DRB1*0901; 89 nM at DRB1*1201; 14 nM against DRB1*1302; 25 nM against DRB4*0101; 1580 nM at DRB1*1101.

On to MLAVFKDTYGLSFTD [Peptide 90.0050], for which the IC50 is 829 nM against DR4w4 (DRB1*0401); 45 nM against DRB1*0301; > 20000 nM on DRB1*0405; 7940 nM at DRB1*0802; 1570 nM on DRB1*0901; 7430 nM at DRB1*1201. The IC50 against DRB1*1302 is 1240 nM; on DRB4*0101 it was > 20000 nM; at DRB1*1101, 2290 nM; at DRB5*0101 it was 18300 nM.

On to YKTLFVDVTSTYHWT [Peptide 90.0241], for which the IC50 stood at 4030 nM at DR1 (DRB1*0101); 75 nM against DR4w4 (DRB1*0401); 647 nM at DR7 (DRB1*0701); 56 nM on DRB1*0301; 549 nM at DRB1*0405; 14100 nM at DRB1*0802. Moreover, the IC50 was 2230 nM against DRB1*0901; 3900 nM at DRB1*1201; 71 nM against DRB1*1302; > 20000 nM on DRB4*0101; 4200 nM on DRB1*1101; 5500 nM at DRB5*0101.
